Values joined by “and” are separate entries in the source; they are usually repeats but may differ in a detail not shown here. Identical values can stand only once. ± gives the expanded uncertainty stated by the source.
Assay: molar heat capacity at constant pressure
Settings: 101.33 kPa, Liquid, Flow calorimetry

Row | Compound | molar heat capacity at constant pressure (268.3 K) | molar heat capacity at constant pressure (278.51 K) | molar heat capacity at constant pressure (288.72 K) | molar heat capacity at constant pressure (298.93 K) | molar heat capacity at constant pressure (309.14 K) | molar heat capacity at constant pressure (260.64 K) | molar heat capacity at constant pressure (319.35 K) | molar heat capacity at constant pressure (329.56 K) | molar heat capacity at constant pressure (339.77 K) | also measured
1 | Cl/C=C/Cl [(E)-1,2-dichloroethene] | 112.74 ± 2.3 J/K/mol [middle of 4 runs] | 112.83 ± 2.3 J/K/mol [middle of 4 runs] | 113.41 ± 2.3 J/K/mol [middle of 4 runs] | 113.99 ± 2.3 J/K/mol [middle of 4 runs] | 114.49 ± 2.3 J/K/mol [middle of 4 runs] |  |  |  |  | 
2 | Cl/C=C\Cl [(Z)-1,2-dichloroethene] | 110.58 ± 2.2 J/K/mol and 110.75 ± 2.2 J/K/mol | 111.08 ± 2.2 J/K/mol and 111 ± 2.2 J/K/mol | 111.91 ± 2.2 J/K/mol and 111.75 ± 2.2 J/K/mol | 112.99 ± 2.3 J/K/mol and 112.66 ± 2.3 J/K/mol and 112.49 ± 2.3 J/K/mol | 113.91 ± 2.3 J/K/mol and 113.74 ± 2.3 J/K/mol |  |  |  |  | molar heat capacity at constant pressure (258.09 K): 110.33 ± 2.2 J/K/mol and 110.08 ± 2.2 J/K/mol; molar heat capacity at constant pressure (263.2 K): 110.33 ± 2.2 J/K/mol and 110.42 ± 2.2 J/K/mol; molar heat capacity at constant pressure (273.41 K): 111 ± 2.2 J/K/mol; molar heat capacity at constant pressure (283.62 K): 111.41 ± 2.2 J/K/mol and 111.58 ± 2.2 J/K/mol; molar heat capacity at constant pressure (293.83 K): 112.58 ± 2.3 J/K/mol [middle of 4 runs]; molar heat capacity at constant pressure (304.04 K): 113.41 ± 2.3 J/K/mol and 113.49 ± 2.3 J/K/mol
3 | ClC(Cl)(Cl)c1ccccc1 [(trichloromethyl)benzene] |  |  |  |  | 220.75 ± 4.4 J/K/mol | 209.61 ± 4.2 J/K/mol and 209.36 ± 4.2 J/K/mol and 209.11 ± 4.2 J/K/mol | 223.83 ± 4.5 J/K/mol | 226.49 ± 4.5 J/K/mol | 228.56 ± 4.6 J/K/mol | molar heat capacity at constant pressure (265.75 K): 210.94 ± 4.2 J/K/mol and 210.44 ± 4.2 J/K/mol and 210.27 ± 4.2 J/K/mol; molar heat capacity at constant pressure (270.85 K): 211.44 ± 4.2 J/K/mol and 211.35 ± 4.2 J/K/mol and 211.19 ± 4.2 J/K/mol; molar heat capacity at constant pressure (275.96 K): 212.52 ± 4.3 J/K/mol and 212.77 ± 4.3 J/K/mol; molar heat capacity at constant pressure (281.06 K): 214.18 ± 4.3 J/K/mol and 213.93 ± 4.3 J/K/mol; molar heat capacity at constant pressure (286.17 K): 215.59 ± 4.3 J/K/mol and 215.34 ± 4.3 J/K/mol; molar heat capacity at constant pressure (291.27 K): 217.09 ± 4.3 J/K/mol and 217.01 ± 4.3 J/K/mol and 216.92 ± 4.3 J/K/mol; molar heat capacity at constant pressure (296.38 K): 217.76 ± 4.4 J/K/mol and 217.92 ± 4.4 J/K/mol and 218.01 ± 4.4 J/K/mol; molar heat capacity at constant pressure (301.48 K): 219.34 ± 4.4 J/K/mol and 219.17 ± 4.4 J/K/mol and 219.25 ± 4.4 J/K/mol; molar heat capacity at constant pressure (349.98 K): 230.89 ± 4.6 J/K/mol
4 | CC(C)(Cl)Cl [2,2-dichloropropane] | 151.41 ± 3 J/K/mol and 151.24 ± 3 J/K/mol and 150.99 ± 3 J/K/mol |  | 153.98 ± 3.1 J/K/mol and 153.82 ± 3.1 J/K/mol and 154.07 ± 3.1 J/K/mol | 155.65 ± 3.1 J/K/mol and 154.98 ± 3.1 J/K/mol | 157.39 ± 3.2 J/K/mol and 157.14 ± 3.1 J/K/mol and 156.98 ± 3.1 J/K/mol | 150.33 ± 3 J/K/mol and 150.49 ± 3 J/K/mol and 150.24 ± 3 J/K/mol | 159.22 ± 3.2 J/K/mol and 158.81 ± 3.2 J/K/mol and 158.89 ± 3.2 J/K/mol | 161.13 ± 3.2 J/K/mol and 160.22 ± 3.2 J/K/mol |  | molar heat capacity at constant pressure (278.52 K): 152.32 ± 3 J/K/mol and 152.24 ± 3 J/K/mol
5 | ClC=C(Cl)Cl [trichloroethene] |  |  |  |  | 129.21 ± 2.6 J/K/mol and 129.04 ± 2.6 J/K/mol and 130.29 ± 2.6 J/K/mol | 126.71 ± 2.5 J/K/mol and 126.63 ± 2.5 J/K/mol | 130.29 ± 2.6 J/K/mol and 131.12 ± 2.6 J/K/mol | 130.95 ± 2.6 J/K/mol and 131.12 ± 2.6 J/K/mol |  | molar heat capacity at constant pressure (265.75 K): 126.71 ± 2.5 J/K/mol and 126.8 ± 2.5 J/K/mol and 126.96 ± 2.5 J/K/mol; molar heat capacity at constant pressure (270.85 K): 126.96 ± 2.5 J/K/mol [middle of 4 runs]; molar heat capacity at constant pressure (275.96 K): 127.13 ± 2.5 J/K/mol [middle of 4 runs]; molar heat capacity at constant pressure (281.06 K): 127.38 ± 2.5 J/K/mol and 127.46 ± 2.6 J/K/mol and 127.79 ± 2.6 J/K/mol; molar heat capacity at constant pressure (286.17 K): 127.96 ± 2.6 J/K/mol and 127.88 ± 2.6 J/K/mol and 128.38 ± 2.6 J/K/mol; molar heat capacity at constant pressure (291.27 K): 128.38 ± 2.6 J/K/mol [middle of 4 runs]; molar heat capacity at constant pressure (296.38 K): 128.54 ± 2.6 J/K/mol [middle of 4 runs]; molar heat capacity at constant pressure (301.48 K): 128.96 ± 2.6 J/K/mol [middle of 4 runs]
6 | CC(Cl)CCl (configuration not stated) [1,2-dichloropropane] | 153.32 ± 3.1 J/K/mol and 152.99 ± 3.1 J/K/mol | 154.15 ± 3.1 J/K/mol and 153.9 ± 3.1 J/K/mol | 155.4 ± 3.1 J/K/mol and 155.15 ± 3.1 J/K/mol | 156.81 ± 3.1 J/K/mol and 156.64 ± 3.1 J/K/mol | 158.06 ± 3.2 J/K/mol and 157.73 ± 3.2 J/K/mol |  | 159.39 ± 3.2 J/K/mol and 159.22 ± 3.2 J/K/mol | 161.05 ± 3.2 J/K/mol and 161.22 ± 3.2 J/K/mol | 162.8 ± 3.3 J/K/mol | 
7 | CCC(Cl)Cl [1,1-dichloropropane] | 148.83 ± 3 J/K/mol and 149.66 ± 3 J/K/mol | 150.33 ± 3 J/K/mol and 150.24 ± 3 J/K/mol and 149.99 ± 3 J/K/mol | 151.82 ± 3 J/K/mol and 151.99 ± 3 J/K/mol and 152.4 ± 3.1 J/K/mol | 152.82 ± 3.1 J/K/mol and 153.65 ± 3.1 J/K/mol | 155.23 ± 3.1 J/K/mol and 154.57 ± 3.1 J/K/mol and 154.15 ± 3.1 J/K/mol |  | 155.9 ± 3.1 J/K/mol and 157.73 ± 3.2 J/K/mol and 155.56 ± 3.1 J/K/mol | 157.23 ± 3.1 J/K/mol and 157.31 ± 3.1 J/K/mol and 157.64 ± 3.2 J/K/mol | 158.97 ± 3.2 J/K/mol and 159.06 ± 3.2 J/K/mol and 159.31 ± 3.2 J/K/mol | molar heat capacity at constant pressure (268.31 K): 149.49 ± 3 J/K/mol

— the NIST ThermoML archive (doi:10.1016/j.fluid.2012.09.001)
